One data set can be described thus: Log P value. It counts as physicochemical.
A short description of data set [1]: Room temperature solubility in methanol. It counts as physicochemical. To be noted: room temperature (20° C. to 30° C.).

Structures are written as SMILES.

With `CCC(=O)O[C@]1(C(=O)SCF)[C@H](C)C[C@H]2[C@@H]3C[C@H](F)C4=CC(=O)C=C[C@]4(C)[C@@]3(F)[C@@H](O)C[C@@]21C` [Active Agent 1, S-(fluoromethyl) 6α,9-difluoro-11β,17-dihydroxy-16α-methyl-3-oxoandrosta-1,4-diene-17β-carbothioate, 17-propionate], the logP in the data set “Log P value” was 3.7. Moreover, in data set [1], the solubility in methanol stood at 0.3 wt %.

Source of the values: patent publication US9248584B2, “High-temperature spray drying process and apparatus” (Bend Research, Inc., priority 2010, dated 2016).
